The text below walks through data of patent publication US5126258A (priority 1988, dated 1992).

Holding throughout (format): biochemical, mouse
Data set [1] has as its system 21G2. The data set is described as follows: Hydrolysis of reactant ligands by receptor 21G2. The following applies: for hydrolysis by 21G2: pH 8.0, receptor/ligand uM, time h: 17 1/10, 2, 18 2/10, 24, 20 2/10, 0.33, 5 1/5, 0.33, 22 5/10, 3.5, preliminary. The method, boiled down: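 Antibody receptors (concentration presumed MW 150,000) incubated with reactant ligand in 50 mM phosphate pH 8.0 (some at pH 7.2) for stated hours; percent ligand consumed measured by C18 HPLC (acetonitrile/water, 0.1% trichloroacetic acid) or fluorescence for some, alongside spontaneous hydrolysis.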

Data set [2] has as its system eight monoclonal receptors 21G2, 7E5, 37G2, 13E10, 12C9, 44A2, 17G8 and 22F5. The data set is described as follows: Catalyzed hydrolysis of reactant ligands by the eight QPN1 monoclonal receptors, summary. The following applies: pH 8.0. The procedure: Mice were hyperimmunized with the Compound 13-KLH conjugate over a three to four week time period. Sera were assayed in an ELISA using a Compound 13-BSA conjugate bound to microtiter plate wells as the solid-phase antigen. Cloned hybridomas were also screened using that ELISA assay.
Each of those catalyses could be inhibited by an appropriate analog-ligand. Thus, a relatively high percentage of induced monoclonal receptors was capable of catalyzing an esterolytic reaction. The reason for this relatively high percentage of useful receptors being induced is unknown, but could be due to the presence of phosphonamidate group nitrogen atom, as compared to a phosphonate oxygen atom, or to the quinoline nucleus of the analog-ligand. Those eight catalytic monoclonal receptors and the hybridomas that secrete them are identified by the laboratory designations "QPN1 7E5", "QPN1 12C9", "QPN1 13E10", "QPN1 17G8", "QPN1 21G2", "QPN1 22F5", "QPN1 37G2" and QPN1 44A2. The prefix "QPNI" is sometimes omitted herein when discussing these hybridomas and receptors.
Amide cleavage for Compounds 14 and 15 was assayed by analyzing for the production of free aminoquinaldine or aminonaphthalene by measuring the increase in the azo dye that results from derivatizing the free aminoquinaldine or aminonapthalene with a diazotization reagent.
Catalysis reactions were conducted by preparing a reaction admixture of 100 microliters (ul) total volume containing 5 micromolar (uM) monoclonal antibody, 50-75 uM amide reactant ligand substrate and a buffer described hereinafter. The buffer included in the above admixture varied depending upon the pH utilized as follows: pH 5, 10 […] sodium acetate, 10 mM sodium chloride; pH 7.2, 10 mM sodium phosphate, 0.15 molar (M) sodium chloride; pH 8.0; 50 mM sodium phosphate. The amide-containing substrates screened in this assay were added to the above admixture in 1 ul of a 100-fold concentrated stock solution of dimethyl formamide (DMF). Monoclonal antibody was added to the above admixture from a concentrated stock solution. The resulting admixture was placed into the well of a 96 well flat bottom microtiter plate (Costar, Cambridge, Mass.) and maintained in a moist vapor environment chamber at 23 degrees C. The production of aminoquinaldine or aminonaphthalene was then assayed as described below after 2,3,5, or 6 days.
The aminoquinaldine or aminonapthalene product produced by the catalyzed reaction was measured by first admixing 20 ul of 5M HCl, 80 ul acetone and 10 ul 0.5% (w/v) sodium nitrite to the reaction admixture to form a second admixture and maintaining that second admixture for 3 minutes at room temperature. Thereafter, 10 ul 2.5% (w/v) ammonium sulfamate was added to form a third admixture that was maintained for 2 minutes at room temperature. A still further 10 ul of 0.5% (w/v) N-(1-napthyl)ethylenediamine dihydrochloride was added to form a fourth admixture that was then maintained for 15 minutes at room temperature. Thereafter the resulting azo dye present in the fourth admixture was measured by absorbance spectroscopy at 540 nanometers (nm) for aminoquinaldine using a Model EL 309 Automated Microplate Reader (Bio-Tek Instruments, Winooski, Vt.).

The test system of data set [3] is P2 50D8. As to the kind of experiment: Catalytic hydrolysis by receptor P2 50D8. The procedure:
Two further catalytic monoclonal receptors were similarly prepared by another fusion using Compound 2i linked to an antigenic carrier as immunogen. Those two catalytic receptor molecules and their hybridomas were designated "P2 50D8" and "P2 57G4".
In one study, twenty-eight monoclonal anti-hapten antibodies to phosphonate 2i from two separate fusion experiments were assayed. […] Antibodies to Compound 4i as hapten were assayed in the same manner. Twelve gamma-globulins were screened as described above. Compound 5 is homologous only in the acyl portion of this larger hapten; however, all but three of these cross-reacted with smaller phosphonate 2 in an ELISA assay as described herein. For two of these there was observed a fluorescence change, occurring in the first 5 minutes of incubation, which corresponds to about 50 percent of that for complete hydrolysis. The background rate of hydrolysis was reestablished after this initial reaction leveled off.

Data set [4] relates to twenty-eight monoclonal anti-hapten antibodies to phosphonate 2i. As to the kind of experiment: Fluorescence assay of twenty-eight anti-phosphonate 2i antibodies with Compound 5. Particulars: pH 7.2. On the procedure: A Perkin-Elmer LS-5 fluorescence spectrometer was operated at a fixed wavelength, using 355 nanometers (nm) for excitation and measuring the emission at 455 nm. A stock solution of the coumarin ester 5 was prepared in dioxane and was diluted to the desired concentrations in Tris-HCl (50 mM, pH 7) or sodium phosphate (50 mM, pH 4-9).
Reactions were run at 23 degrees C and were initiated by the addition of an aliquot of antibody solution (1 mg/ml) to substrate solutions to provide a final protein concentration of 100 nM. Final fluorescence values were determined by hydrolysis of the substrate with pig liver esterase. The observed reaction rate was corrected for spontaneous hydrolysis. […] Active protein concentration was extrapolated from fluorescence values at the end of the reaction. […] Inhibition constants were determined from the Lineweaver-Burk plot data with at least five inhibitor concentrations. […]
The practical range of pH for the assay is limited by the rapid spontaneous rate of hydrolysis of an ester Compound 5 above pH 8.0. […] Any change in fluorescence above background was noted.
In one study, twenty-eight monoclonal anti-hapten antibodies to phosphonate 2i from two separate fusion experiments were assayed. […] For two of these there was observed a fluorescence change, occurring in the first 5 minutes of incubation, which corresponds to about 50 percent of that for complete hydrolysis. […]

For the molecule `CC(=O)Nc1ccc(CC(=O)Oc2cccc3ccccc23)cc1` [Compound 17], in data set [1] (pH 7.2, 1 uM receptor, 10 uM ligand, 2 h), the “hydrolysis by 21G2, pH 7.2” value is listed as 10 percentage of reactant ligand. Also, in data set [1], the “hydrolysis by 21G2” value is reported as 10 percentage of reactant ligand. The “receptors (of eight) that catalyzed hydrolysis of the compound” value in data set [2] is on record as “all of the receptors catalyzed hydrolysis”.

Take `O=C(Cc1ccc(NC(=O)C(F)(F)F)cc1)Oc1ccc2ccc(=O)oc2c1` [Compound 5]: the “catalytic hydrolysis by P2 50D8” value in data set [3] is “capable of catalytically hydrolyzing”. The “reactivity with Compound 5 in fluorescence assay” value in data set [4] is listed as “None of these were reactive”. The “hydrolysis by 21G2” value in data set [1] was 43 percentage of reactant ligand. Further, the “receptors (of eight) that catalyzed hydrolysis of the compound” value in data set [2] was “all of the receptors catalyzed hydrolysis”.
